Like-named read-outs stand apart in the source and are kept apart here.
Conditions: amide bond, 28-membered ring

Substance: [(3R)-N^2-(Benzyloxycarbonyl)-3-amino-L-phenylalanyl]-[(3R)-3-hydroxy-L-leucyl]-L-leucyl-D-arginyl-L-isoleucyl-L-allothreonyl-glycyl-[(3S)-3-hydroxy-L-asparaginyl]-L-serine C^1.9-N^3.1-lactam trifluoroacetate
- ring closure, isolated yield (HATU/NMM, DMF, 0.0 °C): 73%

Substance: [(3R)-N^2-(Benzyloxycarbonyl)-3-amino-L-phenylalanyl]-[(3R)-3-hydroxy-L-leucyl]-L-leucyl-D-arginyl-L-isoleucyl-L-leucyl-glycyl-L-seryl-L-serine C^1.9-N^3.1-lactam trifluoroacetate
- ring closure, isolated yield: 97%

Substance: [(3R)-N^2-(Benzyloxycarbonyl)-3-amino-L-phenylalanyl]-[(3R)-3-hydroxy-L-leucyl]-L-leucyl-D-arginyl-[3-trimethylsilyl-L-alanlyl]-L-allothreonyl-glycyl-L-seryl-L-serine C^1.9-N^3.1-lactam trifluoroacetate
- ring closure, isolated yield: 51%

Substance: [(3R)-N^2-(Benzyloxycarbonyl)-3-amino-L-phenylalanyl]-[(3R)-3-hydroxy-L-leucyl]-L-norleucyl-D-arginyl)-L-isoleucyl-L-allothreonyl-glycyl-L-alanyl-L-serine C^1.9-N^3.1-lactam trifluoroacetate
- ring closure, isolated yield: 80%

Substance: {(3R)-N^2-[(9H-Fluoren-9-ylmethoxy)carbonyl]-3-amino-L-phenylalanyl}-[(3R)-3-hydroxy-L-leucyl]-L-leucyl-D-arginyl-L-isoleucyl-L-allothreonyl-glycyl-[(2S)-2-amino-4-benzyloxycarbonylaminobutyryl]-L-serine C^1.9-N^3.1-lactam trifluoroacetate
- ring closure, isolated yield: 66%

Substance: [(3R)-N^2-(Benzyloxycarbonyl)-3-amino-L-phenylalanyl]-[(3R)-3-hydroxy-L-leucyl]-L-isoleucyl-D-arginyl-L-isoleucyl-L-allothreonyl-glycyl-L-seryl-L-serine C^1.9-N^3.1-lactam trifluoroacetate
- ring closure, isolated yield: 62%

Substance: [(3R)-N^2-(Benzyloxycarbonyl)-3-amino-L-phenylalanyl]-[(3R)-3-hydroxy-L-leucyl]-L-leucyl-D-arginyl-L-isoleucyl-L-allothreonyl-glycyl-L-alanyl-L-serine C^1.9-N^3.1-lactam trifluoroacetate
- ring closure, isolated yield (HATU/NMM, DMF, 0.0 °C): 77%

Substance: [(3R)-N^2-(Benzyloxycarbonyl)-3-amino-L-phenylalanyl]-[(3R)-3-hydroxy-L-leucyl]-L-leucyl-D-arginyl-L-leucyl-L-allothreonyl-glycyl-L-seryl-L-serine C^1.9-N^3.1-lactam trifluoroacetate
- ring closure, isolated yield: 87%

Substance: {(3R)-N^2-[(9H-Fluoren-9-ylmethoxy)carbonyl]-3-amino-L-phenylalanyl}-[(3R)-3-hydroxy-L-leucyl]-L-leucyl-(N^6-benzyloxycarbonyl-D-lysyl)-L-isoleucyl-L-allothreonyl-glycyl-L-seryl-L-serine C^1.9-N^3.1-lactam trifluoroacetate
- ring closure, isolated yield: 78%

Substance: [(3R)-N^2-(Benzyloxycarbonyl)-3-amino-L-phenylalanyl]-[(3R)-3-hydroxy-L-leucyl]-L-leucyl-D-arginyl-L-isoleucyl-L-allothreonyl-glycyl-glycyl-L-serine C^1.9-N^3.1-lactam trifluoroacetate
- ring closure, isolated yield: 38%

Substance: {(3R)-N^2-[(9H-Fluoren-9-ylmethoxy)carbonyl]-3-amino-L-phenylalanyl}-[(3R)-3-hydroxy-L-leucyl]-L-leucyl-[(2R)-2-amino-4-benzyloxycarbonylaminobutyryl]-L-isoleucyl-L-allothreonyl-glycyl-L-seryl-L-serine C^1.9-N^3.1-lactam trifluoroacetate
- ring closure, isolated yield: 85%

Substance: [(3R)-N^2-(Benzyloxycarbonyl)-3-amino-L-phenylalanyl]-[(3R)-3-hydroxy-L-leucyl]-L-norvalyl-D-arginyl-L-isoleucyl-L-allothreonyl-glycyl-L-alanyl-L-serine C^1.9-N^3.1-lactam trifluoroacetate
- ring closure, isolated yield: 100%

Substance: [(3R)-N^2-(Benzyloxycarbonyl)-3-amino-L-phenylalanyl]-[(3R)-3-hydroxy-L-leucyl]-L-leucyl-D-arginyl-L-isoleucyl-L-allothreonyl-glycyl-[(3S)-3-hydroxy-L-asparaginyl]-L-alanine C^1.9-N^3.1-lactam trifluoroacetate
- ring closure, isolated yield: 93%

Substance: [(3R)-N^2-(Benzyloxycarbonyl)-3-amino-L-phenylalanyl]-L-threonyl-L-leucyl-D-arginyl-L-isoleucyl-L-allothreonyl-glycyl-L-seryl C^1.9-N^3.1-lactam trifluoroacetate
- ring closure, isolated yield: 73%

Substance: [(3R)-N^2-(Benzyloxycarbonyl)-3-amino-L-phenylalanyl]-[(3R)-3-hydroxy-L-leucyl]-(3-trimethylsilyl-L-alanyl)-D-arginyl-L-isoleucyl-L-allothreonyl-glycyl-L-seryl-L-serine C^1.9-N^3.1-lactam trifluoroacetate
- ring closure, isolated yield: 98%

Substance: [(3R)-N^2-(Benzyloxycarbonyl)-3-amino-3-(pyridin-3-yl)-L-alanyl]-[(3R)-3-hydroxy-L-leucyl]-L-leucyl-D-arginyl-L-isoleucyl-L-allothreonyl-glycyl-[(3R)-3-hydroxy-L-asparaginyl]-L-serine C^1.9-N^3.1-lactam bis-trifluoroacetate
- ring closure, isolated yield: 61%

Substance: [(3R)-N^2-(Benzyloxycarbonyl)-3-amino-L-phenylalanyl]-[(3R)-3-hydroxy-L-leucyl]-L-leucyl-D-arginyl-L-phenylalanlyl-L-allothreonyl-glycyl-L-seryl-L-serine C^1.9-N^3.1-lactam trifluoroacetate
- ring closure, isolated yield: 76%

Substance: [(3R)-N^2-(Benzyloxycarbonyl)-3-amino-L-phenylalanyl]-[(3R)-3-hydroxy-L-leucyl]-L-leucyl-D-arginyl-L-isoleucyl-L-valyl-glycyl-L-seryl-L-serine C^1.9-N^3.1-lactam trifluoroacetate
- ring closure, isolated yield: 62%

Substance: [(3R)-N^2-(Benzyloxycarbonyl)-3-amino-L-phenylalanyl]-[(3R)-3-hydroxy-L-leucyl]-L-leucyl-D-arginyl-L-isoleucyl-L-allothreonyl-glycyl-L-asparaginyl-L-serine C^1.9-N^3.1-lactam trifluoroacetate
- ring closure, isolated yield (HATU/NMM, DMF, 0.0 °C): 75%

Substance: [(3R)-N^2-(Benzyloxycarbonyl)-3-amino-L-phenylalanyl]-[(3R)-3-hydroxy-L-leucyl]-L-valyl-D-arginyl-L-isoleucyl-L-allothreonyl-glycyl-L-seryl-L-serine C^1.9-N^3.1-lactam trifluoroacetate
- ring closure, isolated yield: 100%

Substance: {(3R)-N^2-[(9H-Fluoren-9-ylmethoxy)carbonyl]-3-amino-L-phenylalanyl}-[(3R)-3-hydroxy-L-leucyl]-L-leucyl-(N^5-benzyloxycarbonyl-D-ornithyl)-L-isoleucyl-L-allothreonyl-glycyl-L-seryl-L-serine C^1.9-N^3.1-lactam trifluoroacetate
- ring closure, isolated yield: 48%

Substance: [(3R)-N^2-(Benzyloxycarbonyl)-3-amino-L-phenylalanyl]-[(3R)-3-hydroxy-L-leucyl]-L-leucyl-D-arginyl-L-isoleucyl-L-allothreonyl-glycyl-[(2S)-2-amino-3-(9H-fluoren-9-ylmethoxycarbonyl)aminobutyryl]-L-serine C^1.9-N^3.1-lactam trifluoroacetate
- ring closure, isolated yield: 67%

Substance: N^2.1-(Benzyloxycarbonyl)-[(3R)-3-amino-O-methyl-L-tyrosyl)]-[(3R)-3-hydroxy-L-leucyl]-L-leucyl-D-arginyl-L-isoleucyl-L-allothreonyl-glycyl-[(3S)-3-hydroxy-L-asparaginyl]-L-serine C^1.9-N^3.1-lactam trifluoroacetate
- ring closure, isolated yield (HATU/NMM, DMF, 0.0 °C): 33%

Substance: [(3R)-N^2-(Benzyloxycarbonyl)-3-amino-L-phenylalanyl]-[(3R)-3-hydroxy-L-leucyl]-L-leucyl-D-arginyl-L-isoleucyl-L-allothreonyl-D-alanyl-[(3S)-3-hydroxy-L-asparaginyl]-L-serine C^1.9-N^3.1-lactam trifluoroacetate
- ring closure, isolated yield: 48%

Substance: [(3R)-N^2-(Benzyloxycarbonyl)-3-amino-L-phenylalanyl]-[(3R)-3-hydroxy-L-leucyl]-L-norvalyl-D-arginyl-L-isoleucyl-L-allothreonyl-glycyl-L-seryl-L-serine C^1.9-N^3.1-lactam trifluoroacetate
- ring closure, isolated yield: 77%

Substance: [(3R)-N^2-(Benzyloxycarbonyl)-3-amino-L-phenylalanyl]-[(3R)-3-hydroxy-L-leucyl]-[3-tertbutyl-L-alanyl]-D-arginyl-L-isoleucyl-L-allothreonyl-glycyl-L-seryl-L-serine C^1.9-N^3.1-lactam trifluoroacetate
- ring closure, isolated yield: 90%

Substance: [(3R)-N^2-(Benzyloxycarbonyl)-3-amino-L-phenylalanyl]-[(3R)-3-hydroxy-L-leucyl]-L-leucyl-D-arginyl-L-valyl-L-allothreonyl-glycyl-L-seryl-L-serine C^1.9-N^3.1-lactam trifluoroacetate
- ring closure, isolated yield: 91%

Substance: [(3R)-N^2-(Benzyloxycarbonyl)-3-amino-L-leucyl]-[(3R)-3-hydroxy-L-leucyl]-L-leucyl-D-arginyl-L isoleucyl-L-allothreonyl-glycyl-[(3R)-3-hydroxy-L-asparaginyl]-L-serine C^1.9-N^3.1-lactam trifluoroacetate
- ring closure, isolated yield: 53%

Substance: {(3R)-N^2-[(9H-Fluoren-9-ylmethoxy)carbonyl]-3-amino-L-phenylalanyl}-[(3R)-3-hydroxy-L-leucyl]-L-leucyl-D-arginyl-L-isoleucyl-L-allothreonyl-glycyl-(N^5-benzyloxycarbonyl-L-ornithyl-L-serine C^1.9-N^3.1-lactam trifluoroacetate
- ring closure, isolated yield: 88%

Substance: [(3R)-N^2-(Benzyloxycarbonyl)-3-amino-L-phenylalanyl]-[(3R)-3-hydroxy-L-leucyl]-L-leucyl-D-arginyl-L-isoleucyl-L-seryl-glycyl-L-seryl-L-serine C^1.9-N^3.1-lactam trifluoroacetate
- ring closure, isolated yield: 81%
